Measured values from patent US9540299B2, “MTOR-independent activator of TFEB for autophagy enhancement and uses thereof” (Hong Kong Baptist University, priority 2015, dated 2017).

What follows are compounds tested against T1, TFEB (Mus musculus, UniProt Q9R210) (assay: Expression and distribution of endogenous TFEB in N2a cells (immunostaining, western blot)). Details: not given.
T1 construct: the expression and distribution of endogenous TFEB in N2a cells treated with curcumin and its analogs are determined; endogenous in cells; host or cells: N2a cells
T1 sequence (Q9R210 1-475): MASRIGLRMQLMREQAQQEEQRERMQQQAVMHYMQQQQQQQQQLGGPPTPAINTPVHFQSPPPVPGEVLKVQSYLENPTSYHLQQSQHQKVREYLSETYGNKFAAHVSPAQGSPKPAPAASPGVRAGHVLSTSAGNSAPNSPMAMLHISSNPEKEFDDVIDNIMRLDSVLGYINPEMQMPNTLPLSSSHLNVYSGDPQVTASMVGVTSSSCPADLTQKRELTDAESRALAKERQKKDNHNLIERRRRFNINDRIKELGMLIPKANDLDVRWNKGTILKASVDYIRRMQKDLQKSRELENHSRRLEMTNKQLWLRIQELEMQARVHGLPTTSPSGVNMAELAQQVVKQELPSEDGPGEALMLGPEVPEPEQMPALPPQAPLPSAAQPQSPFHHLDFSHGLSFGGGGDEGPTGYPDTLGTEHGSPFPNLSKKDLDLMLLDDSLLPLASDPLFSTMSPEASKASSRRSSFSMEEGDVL
Assay type: cell-based
Protocol: Cells were treated with curcumin (Cur, 10 μM), A2, B3 and C1 (1 μM) for 12 h. […] Data is quantified by ImageJ software and is presented as mean±SD of three replicates for each treatment conditions. At least 1000 cells are analyzed in each treatment group. *p<0.05 vs. the control (0.1% DMSO). FIG. 4C is a western blot showing the expression of endogenous TFEB. […] Data are presented as the mean±SD from three independent experiments. *p<0.05 vs. the control (0.1% DMSO). FIG. 4E is fluorescence images showing expression of 3×Flag-TFEB in Hela cells having treated with Cur (10 μM), A2, B3 and C1 (1 μM) for 12 h. Torin 1 (1 μM) treatment for 2 h is used as a positive control. Cells were fixed and stained with anti-Flag antibody. […] FIG. 4G is the western blot showing the expression of Flag-tagged TFEB in the cytosolic (Cyt.) and nuclear (Nuc.) fractions. ACTB and H3F3A (H3 histone, family 3A) are used as loading control of cytoplasmic and nuclear fraction, respectively. FIG. 4H is showing the relative intensity of TFEB in the cytosolic and nuclear fractions. Data are presented as the mean±SD from three independent experiments. *p<0.05 vs. the control (0.1% DMSO).
N2a cells are treated with E2, E3 and E4 (1 μM) for 12 hours. Torin 1 (1 μM) treatment for 2 hours is used as a positive control. The cells are fixed and stained with TFEB antibody (green) and DAPI (blue) (FIG. 16A). TFEB translocate into nucleus are quantified. Quantification data (FIG. 16B) are presented as mean±SD of three replicates in a representative experiment. At least 500 cells are analyzed in each treatment group.
N2a cells are treated with E2, E3, and E4 (1 μM) for 12 hours. Torin 1 (1 μM) treatment for 2 hours is used as a positive control. The expression of endogenous TFEB in the cytosolic (Cyt.) and nuclear (Nuc.) fractions are determined by western blotting (FIG. 17A) and quantified (FIG. 17B). TUBB (β-tubulin) and H3F3A (H3 histone, family 3A) are used as loading control of cytoplasmic and nuclear fraction respectively. Quantification data are presented as the mean±SD from three independent experiments. *p<0.05 vs. the control (0.1% DMSO).
Cells are lysed on ice in 1× Lysis Buffer (9803, Life Technologies) with complete protease inhibitor mixture (04693124001, Roche Applied Science). Animal tissues are homogenized in nine volumes of ice-cold PBS supplemented with protease inhibitors. Cytosolic and nuclear fractions are isolated using protocols similar to those described previously. Anti-Flag or TFEB antibody is added to the whole cell lysates and Dynabeads® Protein G (10003D, Life Technologies) is used for immunoprecipitation. Proteins are separated by 10-15% SDS-PAGE, transferred, and blotted with the antibodies described. The blots are then incubated with secondary antibodies or the Clean-Blot IP Detection Reagent (21230, Thermo Scientific) at room temperature for 1 h. The protein signals are detected by ECL kit (32106, Pierce) and quantified using ImageJ software.
Cells are seeded on coverslips placed in 24-well plates. After drug treatment, slices are fixed with 3.7% paraformaldehyde, permeabilized in 0.2% Triton X-100 and blocked with 5% BSA. After blocking, the slices are stained with anti-TFEB (1:200) or anti-Flag (1:500) antibodies overnight at 4° C. Alexa Fluor®488 (green) or Alexa Fluor®594 (red) secondary antibodies (1:500) are added for 1 h at room temperature. After nuclear staining with DAPI, the slices are mounted with FluorSave reagent (345789, Calbiochem). Cells are visualized using an Eclipse 80i fluorescence microscope (Nikon Instruments Inc.)
Cells are lysed on ice in 1× Lysis Buffer (9803, Life Technologies) with complete protease inhibitor mixture (04693124001, Roche Applied Science) and phosphatase inhibitor (B15001, Biotool). Cytosolic and nuclear fractions are isolated using protocols similar to those described previously. Proteins are separated by 10-15% SDS-PAGE, transferred, and blotted with the antibodies described. […]

| Structure (SMILES) | activity to promote TFEB nucleus translocation, comparison among E series analogs |
| --- | --- |
| O=C(/C=C/c1ccccc1I)/C=C/c1ccccc1I [E4] | best activity |

Same assay, conditions: N2a cells, 1 μM, 12 hours

| Structure (SMILES) | nuclear accumulation of endogenous TFEB by immunofluorescence compared to vehicle control | nuclear translocation of endogenous TFEB, cytosolic and nuclear fractions by Western blots |
| --- | --- | --- |
| O=C(/C=C/c1ccccc1I)/C=C/c1ccccc1I [E4] | striking nuclear accumulation | potently induce |
| O=C(/C=C/c1ccccc1Br)/C=C/c1ccccc1Br [E3] | striking nuclear accumulation | potently induce |
| O=C(/C=C/c1ccccc1Cl)/C=C/c1ccccc1Cl [E2] | striking nuclear accumulation | potently induce |

Same assay, conditions: N2a cells, 12 h; curcumin 10 μM, analogs 1 μM

| Structure (SMILES) | nuclear translocation (distribution) of endogenous TFEB | total levels (expression) of endogenous TFEB |
| --- | --- | --- |
| COc1cc(/C=C/C(=O)CC(=O)/C=C/c2ccc(O)c(OC)c2)ccc1O [curcumin, Curcumin, reference compound] | no effects | no effects |
| O=C(/C=C/c1ccc(O)cc1)/C=C/c1ccc(O)cc1 [B3, 1,5-bis(4-hydroxyphenyl)penta-1,4-dien-3-one] | no effects | no effects |
| O=C(/C=C/c1cccc(C(F)(F)F)c1)/C=C/c1cccc(C(F)(F)F)c1 [A2, 1,5-bis(3-(trifluoromethyl)phenyl)penta-1,4-dien-3-one] | no effects | no effects |
| COc1ccccc1/C=C/C(=O)/C=C/c1ccccc1OC [C1, 1,5-bis(2-methoxyphenyl)penta-1,4-dien-3-one] | promotes | increases |
